Reference: patent US8932807B2, “High throughput in vitro translation (cell-lysate based) assay for detecting quorum sensing signals” (University of South Carolina, priority 2007, dated 2015)

How the values were obtained:
Assay type in all cases: biochemical, Agrobacterium tumefaciens NTL4 (pCF218)(pCF372)
receptor protein TraR [1] = target: T1, receptor protein TraR (Agrobacterium tumefaciens, UniProt P33905); assay: cell-free lysate luminescence assay (Beta-Glo) for detection of AHLs; conditions: for detection of the AHL by the cell-free assay: comparison of absorbance and luminescence assays; for minimum concentration of AHL resulting in an induction ratio greater than 3, Luminescence assay: cell-free lysate, Beta-Glo, 30° 2 h + 1 h, means±SD (n=3); for level that can be detected, luminescence assay / minimum detection limit, luminescence assay: summary statement
T1 construct: expressed in transfected cells; host or cells: Agrobacterium tumefaciens NTL4 (pCF218)(pCF372); crude cell-free lysate (supernatant of sonicated cells)
Experimental: From step 5) • 6) 50 μl of sample solution containing AHLs was added in 96-well plate. • 7) 50 μl of assay reagent diluted in 20 mM KH2PO4 was added into each well, mix and incubate at 30° for 2 h. • 8) 100 μl of an appropriate luminescent substrate (e.g. β-Glo, Promega) was added into each well, mix and incubate and incubate at 30° C. for 1 h. • 9) luminescence was read by microplate luminometer (e.g. Veritas Turner BioSystems). This experiment is discussed in greater detail below.
(§1) Preparation of cell-free lysate. One liter of the reporter strain was grown in AT minimum glucose media (30° C. with shaking for 18 h) to early exponential-phase and then harvested by centrifugation (12,000×g; 10 min). Cell pellets were collected and resuspended in 5 ml of KH2PO4 buffer (100 mM; pH 7.4), then sonicated for 30 sec. three times and centrifuged (12,000×g) at 4° C. for 30 min to remove particulate cell fragments. The supernatant was collected as the ‘cell-free lysate (CFL)’ reagent, and was stored (−80° C.) until use.
Comparison of absorbance and luminescence assays. To improve the sensitivity of the cell-free approach, a luminescence assay was developed for AHLs. The protocol involved: 1) addition of 50 μl of sample solution containing AHLs into a 96-well plate; 2) addition of 50 μl of cell-free extract, diluted in 20 mM KH2PO4 buffer (pH 7.0) resulting in a protein concentration of 80 μg/ml for each well, and then mixed and incubated at 30° for 2 h; 3) addition of 100 μl of β-Glo® (Promega) into each well, followed by mixing and incubation (30° C. for 1 h); and 4) measurement of luminescence using a Veritus Microplate Luminometer (Turner BioSystems). For control wells, 20 mM KH2PO4 (pH 7.0) buffer was used. To determine the detection limit, a 1:1 serial dilution of each AHL was performed in triplicate using 20 mM KH2PO4 (pH 7.0) buffer. Then, absorbance assays were conducted. Induction of β-galactosidase activity was calculated by dividing the sample absorbance or luminescence with that of controls. An induction ratio greater than 3 was considered active (27).

receptor protein TraR [2] = target: T1, receptor protein TraR; assay: cell-free lysate absorbance assay (X-Gal, 635 nm) for detection of AHLs; conditions: for minimum concentration of AHL resulting in an induction ratio greater than 3, Absorbance assay: cell-free lysate, X-Gal, absorbance 635 nm, means±SD (n=3)
Experimental: Absorbance Assay • 1) A culture of A. tumefaciens NTL4 (pCF218)(pCF372) was grown in 250 ml of AT minimal glucose media plus streptomycin (50 μg/ml) and tetracycline (5 μg/ml) at 30° C. with shaking for 18 hrs. • 2) The resulting cell culture was centrifuged at 10,000 rpm for 10 min. to collect cell pellets. • 3) The collected cell pellets were sonicated in 8 ml of 0.1 M KH2PO4 (pH 7.0) buffer to produce a homogenate. • 4) The sonicated homogenate was centrifuged at 50,000 rpm for 30 min. and the supernatant solution was collected. • 5) The supernatant solution was stored at −20° C. until the experiment. • 6) 50 μl of a sample solution containing AHLs was added to the wells of a 96-well plate. • 7) 50 μl of the collected supernatant solution from step (5), along with 100 μl of 20 mM KH2PO4, was added and mixed to each sample, and each sample was incubated at 30° for 2 h. • 8) 1 μl of X-Gal (20 mg/ml) was added and mixed into each well, and each sample was incubated at 30° C. for 1 h. • 9) The absorbance of each well was read at 635 nm.
as §1
Confirmation of β-galactosidase expression in vitro cell-free solution. To confirm β-galactosidase expression in cell-free solution, the following simple absorbance assay for AHLs was used. The protocol involved: 1) addition of 50 μl of sample solution containing AHLs into a 96-well plate; 2) addition of 50 μl of cell-free extract and 100 μl of 20 mM KH2PO4 (pH 7.0) into each well, followed by mixing and incubation at 30° C. for 2 h; 3) addition of 1 μl of X-Gal (20 mg/ml) into each well, then mixing and incubation at 30° C. for 1 h; and 4) measurement of absorbance in each well at 635 nm by spectrophotometer (Shimadzu UV-2401 PC UV-VIS, Shimadzu Corp.). To determine the detection limits, 1:1 serial dilutions of each AHL in 20 mM KH2PO4 (pH 7.0) buffer were performed in triplicate. Induction of β-galactosidase activity was calculated by dividing the absorbance of samples by those of controls. An induction ratio greater than 3 was considered active.

[3] = system: binding of AHL/TraR complex to β-galactosidase promoter; assay: inhibition of Reactions 2) and 3) of the cell-free assay by streptomycin; conditions: 1 μM C8-AHL, 30 min pre-incubation, absorbance, FIG. 5C
Experimental: Inhibition of Reactions 2) and 3). […] First, 50 μl aliquots of 1 μM C8-AHL solution was added to each tube, followed by addition of cell-free extract. Further, a series of increasing concentrations of streptomycin (i.e. 0, 50, 125, 250, 300 μg) were added to the cell-free extract and incubated for 30 min. prior to the assay (4, 22, 29). Then, β-galactosidase expression was measured by absorbance.

T1 sequence (P33905 whole entry): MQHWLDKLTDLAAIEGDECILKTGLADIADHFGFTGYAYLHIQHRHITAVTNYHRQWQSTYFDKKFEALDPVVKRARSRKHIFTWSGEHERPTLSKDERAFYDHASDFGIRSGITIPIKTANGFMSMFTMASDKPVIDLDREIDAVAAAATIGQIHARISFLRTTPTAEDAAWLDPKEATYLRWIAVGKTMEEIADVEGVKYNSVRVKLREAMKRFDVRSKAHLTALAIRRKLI

Compound | minimum concentration of AHL resulting in an induction ratio greater than 3, Luminescence assay (receptor protein TraR [1]) [nM] | level that can be detected, luminescence assay (receptor protein TraR [1]) | minimum concentration of AHL resulting in an induction ratio greater than 3, Absorbance assay (receptor protein TraR [2]) [nM] | minimum detection limit, luminescence assay (receptor protein TraR [1]) | other results
CCCC(=O)N[C@H]1CCOC1=O [C4-AHL, N-butanoyl-homoserine lactone] | – | – | – | – | detection of the AHL by the cell-free assay (receptor protein TraR [1]): not able to detect
CCCCCC(=O)NC1CCOC1=O (stereo not drawn) [C6-AHL, N-hexanoyl-homoserine lactone] | 30 ± 3 | low μM level | 335 ± 10 | – | –
CCCCCCC(=O)N[C@H]1CCOC1=O [C7-AHL, N-heptanoyl-homoserine lactone] | 25 ± 5 | – | 245 ± 8 | approximately 10 nM | –
CCCCCCCC(=O)NC1CCOC1=O (stereo not drawn) [C8-AHL, N-octanoyl-homoserine lactone] | 20 ± 2 | – | 225 ± 11 | approximately 10 nM | absorbance changes (635 nm) proportional to concentration, up to (receptor protein TraR [2]; dose-response of β-galactosidase expression, FIG. 6): up to 2 μM
CCCCCCCCCC(=O)N[C@H]1CCOC1=O [C10-AHL, N-decanoyl-homoserine lactone] | 100 ± 5 | low μM level | 1300 ± 20 | – | –
CCCCCCCCCCCC(=O)NC1CCOC1=O (stereo not drawn) [C12-AHL, N-dodecanoyl-homoserine lactone] | 200 ± 6 | low μM level | 2400 ± 30 | – | –
CCCCCCCCCCCCCC(=O)N[C@H]1CCOC1=O [C14-AHL, N-tetradecanoyl-homoserine lactones] | – | – | – | – | detection of the AHL by the cell-free assay (receptor protein TraR [1]): not able to detect
CCCC(=O)CC(=O)N[C@H]1CCOC1=O [oxo-C6-AHL, N-3-oxo-hexanoyl-homoserine lactone] | 17 ± 2 | – | 180 ± 25 | approximately 10 nM | –
CCCCCC(=O)CC(=O)NC1CCOC1=O (stereo not drawn) [oxo-C8-AHL, N-3-oxo-octanoyl-homoserine lactone] | 10 ± 3 | – | 120 ± 10 | – | –
[H]/N=C(/N)N[C@H]1[C@H](O)[C@@H](O)[C@H](O[C@@H]2O[C@@H](C)[C@](O)(C=O)[C@H]2O[C@@H]2O[C@@H](CO)[C@H](O)[C@@H](O)[C@@H]2NC)[C@@H](N/C(N)=N\[H])[C@@H]1O [streptomycin] | – | – | – | – | streptomycin additions that reduced assay activities [3]: above 125 μg/ml
